Experimental data as given in patent US9839642B2, “Beta-tetrazolyl-propionic acids as metallo-beta-lactamase inhibitors” (priority 2014, dated 2017).
Read-outs that look alike come from different tables or passages of the source.

Assays:
IMP-1 = IMP-1 (Serratia marcescens, UniProt P52699); assay: Enzyme activity: determination of IC50, fluorescence assay with CCF2-FA substrate; type: biochemical; details: CCF2-FA 1.25 μM, 2 hours at 25° C., read-out: IMP1 IC50
Procedure: (§1) Enzyme Activity: Determination of IC50
(§2) The Class B enzyme activities were measured in the presence of a compound of the EXAMPLES as a test inhibitor in a fluorescence assay against a commercially available substrate consisting of a cephalosporin core linking 7-hydroxycoumarin to fluorescein (CCF2-FA; Life Technologies, Grand Island, N.Y.). The enzyme (NDM-1, IMP-1 or VIM-1) and the substrate were diluted in 100 mM KH2PO4 buffer (pH 7) containing 0.005% Tween-20 and 10 μM ZnSO4. In the assay, the final concentration of enzyme was 1 pM, 2 pM and 30 pM for NDM-1, IMP-1 and VIM-1, respectively, and the final concentration of CCF2-FA was 1.25 μM. The test inhibitor was dissolved in DMSO and diluted 1:50 in the assay, resulting in a final concentration range of 20 μM to 0.00063 μM. In a 384-well microplate, the test inhibitor was incubated with the metallo-β-lactamase enzyme and the substrate for 2 hours at 25° C. Fluorescence at 460 nm following excitation at 405 nm was measured. The IC50 value was determined from semi-logarithmic plots of enzyme inhibition versus inhibitor concentration, with a curve generated using a 4-parameter fit.

NDM-1 = NDM-1 (Klebsiella pneumoniae, UniProt C7C422); assay: as above; type: biochemical; details: CCF2-FA 1.25 μM, 2 hours at 25° C., read-out: NDM1 IC50
Procedure: as §1, §2

VIM-1 = VIM-1 (Pseudomonas aeruginosa, UniProt A0A0F7KYQ8); assay: as above; type: biochemical; details: CCF2-FA 1.25 μM, 2 hours at 25° C., read-out: VIM1 IC50
Procedure: as §1, §2

[1] = tested on: Klebsiella pneumoniae expressing VIM-1 (IHMA599644); assay: Antibiotic potentiation activity: synergistic concentration (MITC95) with imipenem, growth by OD600; type: cell-based
Procedure: (§3) Antibiotic Potentiation Activity: Determination of Synergistic Concentration
(§4) The bacterial strains tested included the clinical strains Escherichia coli expressing NDM-1 (CLB30005, CLB30016), Serratia marcescens expressing IMP-1 (CL5741), and Klebsiella pneumoniae expressing VIM-1 (IHMA599644). Inhibitor activity was measured in the presence and absence of imipenem or ceftazidime in a 384-well microplate.
(§5) The clinical strains CLB30016, CL5741, and IHMA599644 were grown on trypticase soy agar containing 5% sheep's blood. The clinical strain CLB30005 was grown on Mueller Hinton broth agar containing 8 μg/ml imipenem. The bacteria on agar plates were incubated overnight at 35° C. with ambient humidity (achieved from an open pan of water inside the incubator). The following day, individual colonies from each clinical strain were picked and resuspended in 5 ml saline to attain an OD600 of 0.14, 0.11, 0.15 and 0.13, for CLB30005, CLB30016, CL5741 and IHMA599644, respectively. These were further diluted 1:100 into 1.1×CAMHB and used to inoculate the test wells as described below.
(§6) Imipenem in 10 mM 3-(N-morpholino)propanesulfonic acid (MOPS, pH 7) was stored in single use aliquots at −80° C. Test inhibitors were dissolved in DMSO and diluted 1:50 in the assay, resulting in a final concentration range of 200 μM to 0.195 μM. On the day of the assay, 4 μl of antibiotic was added to 45 μl of bacteria followed by 1 μl of test compound and mixed by pipetting and with an orbital shaker. The concentration of antibiotic used in the assay was 1 μg/ml or 4 μg/ml. Microplates were covered and incubated at 35° C. for 22 hours to 24 hours. At the end of the incubation, absorbance was determined using a spectrophotometer. The synergistic concentration of MBLI was determined by identifying the lowest concentration of test compound in the presence of a given concentration of antibiotic that was required to inhibit 95% of the growth of the bacteria.
(§7) Representative compounds of the present invention display a synergistic effect. For example, representative compounds of EXAMPLES 1-456 were determined to restore susceptibility to imipenem at concentrations of 200 μM or less.

[2] = tested on: Escherichia coli expressing NDM-1 (CLB30016); assay: as above; type: cell-based
Procedure: as §3, §4, §5, §6, §7

[3] = tested on: Serratia marcescens expressing IMP-1 (CL5741); assay: as above; type: cell-based
Procedure: as §3, §4, §5, §6, §7

[4] = K. pneumoniae IHMA599644 (VIM-1), 95% inhibition of growth
[5] = E. coli CLB30016 (NDM-1), 95% inhibition of growth
[6] = S. marcescens CL5741 (IMP-1), 95% inhibition of growth
[7] = 95% inhibition of bacterial growth, strain IHMA599644
[8] = 95% inhibition of bacterial growth, strain CLB30016
[9] = 95% inhibition of bacterial growth, strain CL5741

Sequence of NDM-1 (C7C422 29-270, looked up, species assumed): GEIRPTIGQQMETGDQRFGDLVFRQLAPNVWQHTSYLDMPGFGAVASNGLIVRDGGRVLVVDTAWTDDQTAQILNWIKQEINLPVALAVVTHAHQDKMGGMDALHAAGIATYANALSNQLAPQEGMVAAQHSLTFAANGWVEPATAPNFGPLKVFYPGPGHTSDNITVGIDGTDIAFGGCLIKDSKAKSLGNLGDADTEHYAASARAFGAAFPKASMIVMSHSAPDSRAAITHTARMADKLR
Sequence of IMP-1 (P52699 19-246, looked up, species assumed): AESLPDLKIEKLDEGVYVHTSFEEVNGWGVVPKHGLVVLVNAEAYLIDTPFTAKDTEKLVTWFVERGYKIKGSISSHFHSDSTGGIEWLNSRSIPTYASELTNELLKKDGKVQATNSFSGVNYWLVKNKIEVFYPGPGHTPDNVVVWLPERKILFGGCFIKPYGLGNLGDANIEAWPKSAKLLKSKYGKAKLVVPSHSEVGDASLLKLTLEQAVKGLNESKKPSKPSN

CCC[C@H](C(=O)[O-])[C@H](Cc1ccc(C2=CC[N+](C)(C)CC2)cc1)c1nnn[nH]1 [Example 295, (S)-2-((S)-2-(4-(1,1-dimethyl-1,2,3,6-tetrahydropyridin-1-ium-4-yl)phenyl)-1-(1H-tetrazol-5-yl)ethyl)pentanoate]
IC50 (IMP-1; IMP-1 enzyme 2 pM): 1100 nM | IC50 (NDM-1; NDM-1 enzyme 1 pM): 440 nM | IC50 (VIM-1; VIM-1 enzyme 30 pM): 1600 nM | VIM1 KP599644 MITC95 [1, 4]: 25 µM | NDM1 EC30016 MITC95 [2, 5]: 12.5 µM | IMP1 SM5741 MITC95 [3, 6]: 12.5 µM

CCC[C@H](C(=O)O)[C@H](Cc1cccc(-c2ccc(C(N)=O)cc2)c1)c1nn[nH]n1 [Example 351, (2S)-2-[(1)-2-(4′-carbamoylbiphenyl-3-yl)-1-(2H-tetrazol-5-yl)ethyl]pentanoic acid]
IC50 (IMP-1; IMP-1 enzyme 2 pM): 24 nM | IC50 (NDM-1; NDM-1 enzyme 1 pM): 0.78 nM | IC50 (VIM-1; VIM-1 enzyme 30 pM): 1.6 nM | VIM1 KP599644 MITC95 [1, 4]: 25 µM | NDM1 EC30016 MITC95 [2, 5]: 7.8 µM | IMP1 SM5741 MITC95 [3, 6]: 0.59 µM

CCC[C@H](C(=O)O)[C@H](Cc1ccc(O)nc1)c1nnn[nH]1 [Example 157, (S)-2-((S)-2-(6-hydroxypyridin-3-yl)-1-(1H-tetrazol-5-yl)ethyl)pentanoic acid]
IC50 (IMP-1; enzyme 2 pM): 12000 nM | IC50 (NDM-1; enzyme 1 pM): 730 nM | IC50 (VIM-1; enzyme 30 pM): 8.5 nM | VIM1 KP599644 MITC95 [1, 7]: 25 µM | NDM1 EC30016 MITC95 [2, 8]: 18.8 µM | IMP1 SM5741 MITC95 [3, 9]: >200 µM

CCC[C@H](C(=O)O)[C@H](Cc1ccc(C(=O)N2CCNCC2)cc1)c1nnn[nH]1 [Example 275, (2S)-2-[(1S)-2-[4-(piperazin-1-ylcarbonyl)phenyl]-1-(1H-tetrazol-5-yl)ethyl]pentanoic acid]
IC50 (IMP-1; IMP-1 enzyme 2 pM): 520 nM | IC50 (NDM-1; NDM-1 enzyme 1 pM): 39 nM | IC50 (VIM-1; VIM-1 enzyme 30 pM): 41 nM | VIM1 KP599644 MITC95 [1, 4]: 38 µM | NDM1 EC30016 MITC95 [2, 5]: 9.4 µM | IMP1 SM5741 MITC95 [3, 6]: 25 µM

CC(C)C[C@H](C(=O)O)[C@H](Cc1ccc(COCC2CCNCC2)c(F)c1)c1nn[nH]n1.O=C(O)C(F)(F)F [Example 442, 5-((2S,3S)-3-carboxy-1-(3-fluoro-4-((piperidin-4-ylmethoxy)methyl)phenyl)-5-methylhexan-2-yl)-2H-tetrazol-3-ium 2,2,2-trifluoroacetate]
IC50 (IMP-1; IMP-1 enzyme 2 pM): 110 nM | IC50 (NDM-1; NDM-1 enzyme 1 pM): 74.7 nM | IC50 (VIM-1; VIM-1 enzyme 30 pM): 8.73 nM | VIM1 KP599644 MITC95 [1, 4]: 25 µM | NDM1 EC30016 MITC95 [2, 5]: 12.5 µM | IMP1 SM5741 MITC95 [3, 6]: 6.25 µM

CCC[C@H](C(=O)O)[C@H](Cc1ccccc1-c1ccc(C2CCNCC2)cc1)c1nn[nH]n1 [Example 395, (2S)-2-[(1S)-2-(4′-piperidin-4-ylbiphenyl-2-yl)-1-(2H-tetrazol-5-yl)ethyl]pentanoic acid]
IC50 (IMP-1; IMP-1 enzyme 2 pM): 120 nM | IC50 (NDM-1; NDM-1 enzyme 1 pM): 0.1 nM | IC50 (VIM-1; VIM-1 enzyme 30 pM): 0.48 nM | VIM1 KP599644 MITC95 [1, 4]: 16 µM | NDM1 EC30016 MITC95 [2, 5]: 6.2 µM | IMP1 SM5741 MITC95 [3, 6]: 6.25 µM

CCC[C@H](C(=O)O)[C@H](Cc1cnc(N2CCNCC2)s1)c1nnn[nH]1 [Example 120, (S)-2-((S)-2-(2-(piperazin-1-yl)thiazo1-5-yl)-1-(1H-tetrazol-5-yl)ethyl)pentanoic acid]
IC50 (NDM-1; enzyme 1 pM): 1200 nM | IC50 (VIM-1; enzyme 30 pM): 8.5 nM | VIM1 KP599644 MITC95 [1, 7]: 37 µM | NDM1 EC30016 MITC95 [2, 8]: 25 µM | IMP1 SM5741 MITC95 [3, 9]: >200 µM

CC(C)C[C@H](C(=O)O)[C@H](Cc1ccc(Oc2ccccc2N2CCNCC2)nc1)c1nn[nH]n1 [Example 387, (2S)-4-methyl-2-[(1S)-2-[6-(2-piperazin-1-ylphenoxy)pyridin-3-yl]-1-(2H-tetrazol-5-yl)ethyl]pentanoic acid]
IC50 (IMP-1; IMP-1 enzyme 2 pM): 2400 nM | IC50 (NDM-1; NDM-1 enzyme 1 pM): 880 nM | VIM1 KP599644 MITC95 [1, 4]: >200 µM | NDM1 EC30016 MITC95 [2, 5]: >200 µM | IMP1 SM5741 MITC95 [3, 6]: >200 µM

CC(C)(C)[C@H](C(=O)O)[C@H](Cc1ccc(NCCO)nc1)c1nnn[nH]1.O=C(O)C(F)(F)F [Example 428]
VIM1 KP599644 MITC95 [1, 4]: 12.5 µM | NDM1 EC30016 MITC95 [2, 5]: 0.7813 µM | IMP1 SM5741 MITC95 [3, 6]: 1.563 µM

CC(C)[C@H](C(=O)O)[C@H](Cc1csc(C2=CCNC2)n1)c1nnn[nH]1 [Example 71, (2S,3S)-4-(2-(2,5-dihydro-1H-pyrrol-3-yl)thiazol-4-yl)-2-isopropyl-3-(1H-tetrazol-5-yl)butanoic acid]
IC50 (NDM-1; enzyme 1 pM): 570 nM | IC50 (VIM-1; enzyme 30 pM): 120 nM | VIM1 KP599644 MITC95 [1, 7]: 25 µM | NDM1 EC30016 MITC95 [2, 8]: 12.5 µM | IMP1 SM5741 MITC95 [3, 9]: >200 µM

CC(C)C[C@H](C(=O)O)[C@H](Cc1ccc(N2CC(N3CCNCC3)C2)nc1)c1nnn[nH]1 [Example 334, (2S)-4-methyl-2-[(1S)-2-[6-(3-piperazin-1-ylazetidin-1-yl)pyridin-3-yl]-1-(1H-tetrazol-5-yl)ethyl]pentanoic acid]
VIM1 KP599644 MITC95 [1, 4]: 50 µM | NDM1 EC30016 MITC95 [2, 5]: 6.2 µM | IMP1 SM5741 MITC95 [3, 6]: 25 µM

CC(C)C[C@H](C(=O)O)[C@H](Cc1ccc(N2CC(N3CCNCC3)C2)nc1)c1nnn[nH]1 [Example 324, (2S)-4-methyl-2-[(1S)-2-[6-(3-piperazin-1-ylazetidin-1-yl)pyridin-3-yl]-1-(1H-tetrazol-5-yl)ethyl]pentanoic acid]
VIM1 KP599644 MITC95 [1, 4]: >200 µM | NDM1 EC30016 MITC95 [2, 5]: >200 µM | IMP1 SM5741 MITC95 [3, 6]: >200 µM

CC(C)C[C@H](C(=O)O)[C@H](Cc1ccc(Oc2ccc(CCN)cc2)nc1)c1nn[nH]n1 [Example 371, (2S)-2-[(1S)-2-{6-[4-(2-aminoethyl)phenoxy]pyridin-3-yl}-1-(2H-tetrazol-5-yl)ethyl]-4-methylpentanoic acid]
IC50 (IMP-1; IMP-1 enzyme 2 pM): 290 nM | IC50 (NDM-1; NDM-1 enzyme 1 pM): 93 nM | VIM1 KP599644 MITC95 [1, 4]: 75 µM | NDM1 EC30016 MITC95 [2, 5]: 12.5 µM | IMP1 SM5741 MITC95 [3, 6]: 12.5 µM

CC(C)C[C@H](C(=O)O)[C@H](Cc1ccc(Oc2ccc(CCN)cc2)nc1)c1nn[nH]n1 [Example 392, (2S)-2-[(1S)-2-{6-[4-(2-aminoethyl)phenoxy]pyridin-3-yl}-1-(2H-tetrazol-5-yl)ethyl]-4-methylpentanoic acid]
IC50 (IMP-1; IMP-1 enzyme 2 pM): 270 nM | IC50 (NDM-1; NDM-1 enzyme 1 pM): 49 nM | VIM1 KP599644 MITC95 [1, 4]: 75 µM | NDM1 EC30016 MITC95 [2, 5]: 6.2 µM | IMP1 SM5741 MITC95 [3, 6]: 25 µM

CC(C)C[C@H](C(=O)O)[C@H](Cc1ccc(Oc2ccccc2N2CCNCC2)nc1)c1nn[nH]n1 [Example 372, (2S)-4-methyl-2-[(1S)-2-[6-(2-piperazin-1-ylphenoxy)pyridin-3-yl]-1-(2H-tetrazol-5-yl)ethyl]pentanoic acid]
IC50 (IMP-1; IMP-1 enzyme 2 pM): 1600 nM | IC50 (NDM-1; NDM-1 enzyme 1 pM): 570 nM | VIM1 KP599644 MITC95 [1, 4]: >200 µM | NDM1 EC30016 MITC95 [2, 5]: 38 µM | IMP1 SM5741 MITC95 [3, 6]: 75 µM

CC(C)(C)[C@H](C(=O)O)[C@H](Cc1ccc(NCCO)nc1)c1nnn[nH]1.O=C(O)C(F)(F)F [Example 428, 2,2,2-trifluoroacetate]
IC50 (IMP-1; IMP-1 enzyme 2 pM): 18.8 nM | IC50 (NDM-1; NDM-1 enzyme 1 pM): 45.4 nM | IC50 (VIM-1; VIM-1 enzyme 30 pM): 37.2 nM
